In US20160201067A1, “Composition for Enhancing Transgene Expression in Eukaryotic Cells and Method for Enhancing Production of a Target Protein Encoded by a Transgene” (SILEZIA GROUP PTE. LTD, priority 2013, published 2016):

Experiments:
[1] = tested on: mouse peritoneal macrophages transduced with Ad-GFP; experiment: Enhancement of GFP expression in peritoneal macrophages transduced with Ad-GFP, PRR agonists (Example 4); type: cell-based; details: Ad-GFP 2 × 10^7 PFU/ml, 4 days
Method: Mouse peritoneal macrophages (BALB/c female mice, Stolbovaya breeding nursery) were washed with physiological saline solution, pelleted by centrifugation at 1200 rpm for 10 min, suspended in the complete cell culture medium (CCM, consisting of RPMI-1640 medium supplemented with 10% fetal calf serum, 2 mM L-glutamine, 50 μM of (3-mercaptoethanol, and 10 μg/ml of gentamycin) at a concentration of one million cells per 1 ml, and incubated over night in 90 mm Petri dishes at 37° C. and 5% CO2. On the next day, nonadherent cells were removed by washing with warm phosphate buffered saline (PBS, pH 7.4), and adherent cells were covered with Versene solution, kept at 4° C. for 60 min in a refrigerator, and then detached from the culture dish by washing with Versene solution using 5 ml pipette. […] Cell cultures were incubated for 4 days at 37° C. and 5% CO2.
Confocal microscopy images (FIG. 3A) show macrophages transduced with Ad-GFP and additionally activated by TLR4 agonist (10 μg/ml of APG, right image), as compared to control macrophages transduced with Ad-GFP without addition of APG (left image). […] The quantitative assay of GFP production was carried out using flow cytometry which determined both the absolute number of cells containing GFP and the GFP content in each cell by measuring fluorescence intensity of a single cell. The product of the number of fluorescent cells and the fluorescence intensity of each cell is proportional to the number of synthesized GFP molecules.
As is described earlier, peritoneal macrophages were transduced with Ad-GFP (2×10^7 PFU/ml) in the absence or presence of one of the above mentioned PRR agonists. Cell cultures were incubated at 37° C. and 5% CO2 for four days. After the end of incubation, cells were detached by washing with a cold Versene solution, and the percentage and absolute number of cells having green fluorescence and the intensity of cell fluorescence were determined using a FACSAria II flow cytometer. The absolute count of cells was normalized by calibration beads containing a known concentration of microspheres (CountBright Invitrogen), and discrimination between live and dead cells was carried out using a DNA-specific dye DAPI. Typical histograms of GFP fluorescence signal after the transduction of macrophages by Ad-GFP without additional activation of cells (FIG. 3D) or with additional activation of cells with CL097, the agonist of TLR7 and TLR8 (FIG. 3E), are shown.
The quantitative assessment of the enhancement of target GFP expression was performed by the formula:
K=MFI×N/MFIcontr×Ncontr, (1)
K is the enhancement (fold increase) of GFP expression;
MFI is the mean intensity of fluorescence of cells transduced with Ad-GFP with additional activation by an agonist;
MFIcontr is the mean intensity of fluorescence of cells transduced with Ad-GFP (control) without additional activation;
N is the number of fluorescent cells after the transduction with Ad-GFP with additional activation by an agonist; and
Ncontr is the number of fluorescent cells (control) after the transduction with Ad-GFP without additional activation.

[2] = tested on: mouse peritoneal macrophages; experiment: Enhancement of transgenic SEAP expression in peritoneal macrophages (Example 6); details: TNF-α 10 ng/ml or APG 10 μg/ml vs Ad-SEAP alone
Method: A test liquid was clarified by centrifugation at 14,000 g for 2 min, warmed-up at 65° C. for 5 min to inhibit endogenous phosphatases, then 20 μl aliquots were transferred into each well of a 96-well plate to 130 μl of reaction buffer (0.5 M NaHCO3, 0.5 MM MgCl2, pH 9.8), and incubated at 37° C. for 10 min. Then 50 μl of 60 μM p-nitrophenyl phosphate in reaction buffer were added, and the optical density was measured at 405 nm at fixed intervals. The SEAP activity was expressed in mU/ml, considering 1 mU/ml corresponds to an increase in optical density of 0.04 U per 1 min.
Mouse peritoneal macrophages were obtained and incubated as described in the example 4. Cells were incubated in triplet culture wells with addition of Ad-GFP at 2×10^7 PFU per well in combination with TNF-α (10 ng/ml) or APG (Russian Patent no. 2195308, 10 μg/ml). In the negative control cultures, macrophages were transduced with Ad-SEAP (2×10^7 PFU) without any cell activating compound. After 4 days, the activity of SEAP was measured in the culture medium, as described in the example 2.

CC(C)Cn1cnc2c(N)nc3ccccc3c21 [Imiquimod, imiquimod]
Fold increase in the expression of GFP, calculated according to the formula (1), Mean ([1]; agonist 10 μg/ml): 2.03

ODN 1826
Fold increase in the expression of GFP, calculated according to the formula (1), Mean ([1]; agonist 0.6 μg/ml): 1.43

TNF-α
Enhancement coefficient (SEAP expression in peritoneal macrophages) [2]: 1.8

lipoteichoic acid [LTA]
Fold increase in the expression of GFP, calculated according to the formula (1), Mean ([1]; agonist 10 μg/ml): 2.10

Lauroyl-g-D-Glu-D-mDAP and Lauroyl-g-D-Glu-L-mDAP [C12-iE-DAP]
Fold increase in the expression of GFP, calculated according to the formula (1), Mean ([1]; agonist 20 μg/ml): 3.1

Flagellin
Fold increase in the expression of GFP, calculated according to the formula (1), Mean ([1]; agonist 1 μg/ml): 2.13

CCOCc1nc2c([nH]1)c(N)nc1ccccc12 [CL097]
Fold increase in the expression of GFP, calculated according to the formula (1), Mean ([1]; agonist 2.5 μg/ml): 14.2
